Counter-ions that a name gives are not always drawn.

One may read the Ki as the equilibrium dissociation constant of an inhibitor or competing ligand from its target. High values mean lower affinity, low ones higher affinity.

T1 sequence (Q60492 whole entry): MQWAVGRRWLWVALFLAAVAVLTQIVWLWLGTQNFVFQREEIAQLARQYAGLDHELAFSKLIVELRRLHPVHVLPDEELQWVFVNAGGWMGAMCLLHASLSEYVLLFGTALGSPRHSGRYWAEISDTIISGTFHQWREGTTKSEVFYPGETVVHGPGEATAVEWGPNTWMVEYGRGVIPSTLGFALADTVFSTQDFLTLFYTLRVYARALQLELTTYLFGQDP

This assay concerns the target T1, σ1-receptor (Cavia porcellus, UniProt Q60492).
T1 construct: Guinea pig brains were homogenized in 10 vols; (w/v) of Tris-HCl 50 mM 0.32 M sucrose; from tissue; host or cells: guinea pig brain membranes
The experiment in a line: σ1-receptor binding assay, [3H]-(+)-pentazocine, guinea pig brain membranes. To be noted: radioligand [3H]-(+)-pentazocine at 5.0 nM; guinea pig brain membrane; 150 min at 37° C.; nonspecific binding with 1 μM haloperidol. As to the method: Brain membrane preparation and binding assays for the σ1-receptor were performed as described (DeHaven-Hudkins, D. L., L. C. Fleissner, and F. Y. Ford-Rice, 1992, Characterization of the binding of [^3H](+)pentazocine to σ recognition sites in guinea pig brain, Eur. J. Pharmacol. 227, 371-378) with some modifications. Guinea pig brains were homogenized in 10 vols. (w/v) of Tris-HCl 50 mM 0.32 M sucrose, pH 7.4, with a Kinematica Polytron PT 3000 at 15000 r.p.m. for 30 s. The homogenate was centrifuged at 1000 g for 10 min at 4° C. and the supernatants collected and centrifuged again at 48000 g for 15 min at 4° C. The pellet was resuspended in 10 volumes of Tris-HCl buffer (50 mM, pH 7.4), incubated at 37° C. for 30 min, and centrifuged at 48000 g for 20 min at 4° C. Following this, the pellet was re-suspended in fresh Tris-HCl buffer (50 mM, pH 7.4) and stored on ice until use.
The radioligand used was [^3H]-(+)-pentazocine at 5.0 nM and the final volume was 200 μl. The incubation was initiated with the addition of 100 μl of membrane at a final tissue concentration of approximately 5 mg tissue net weight/mL and the incubation time was 150 m. at 37° C. After incubation, the membranes were collected onto pretreated glass fiber filterplate (MultiScreen-FC, Millipore), with polyethylenimine 0.1%. The filters were washed two times with 200 μl of washing buffer (50 mM Tris Cl, pH=7.4) and then 25 μl of Ecoscint H liquid scintillation cocktail were added. Microplates were allowed to set for several hours and then quantified by liquid scintillation spectrophotometry (1450 Microbeta, Wallac). Nonspecific binding was determined with 1 μM haloperidol.
`c1ccn2nc(OCCCCN3CC[C@H]4CCCC[C@@H]4C3)cc2c1` [Example 51, (4aR,8aS)-2-(4-(pyrazolo[1,5-a]pyridin-2-yloxy)butyl)decahydroisoquinoline maleate] gave an inhibitory constant (Ki) of 8.3 nM.

Take `c1ccn2nc(OCCN3CCC4CCCCC4C3)cc2c1` (centres unmarked) [Example 42, 2-(2-(pyrazolo[1,5-a]pyridin-2-yloxy)ethyl)decahydroisoquinoline maleate]: the Ki worked out at 3.6 nM.

In the case of `c1ccc(C2CCN(CCCCOc3cc4ccccn4n3)CC2)cc1` [Example 21, 2-(4-(4-phenylpiperidin-1-yl)butoxy)pyrazolo[1,5-a]pyridine oxalate], the Ki worked out at 3.8 nM.

Compound `CCCN(CCOc1cc2n(n1)CCCC2)CC1CC1` [Example 90, N-(cyclopropylmethyl)-N-(2-(4,5,6,7-tetrahydropyrazolo[1,5-a]pyridin-2-yloxy)ethyl)propan-1-amine maleate] yielded a Ki of 28.5 nM.

`c1ccn2nc(OCCN3CCN(C4CCCCC4)CC3)cc2c1` [Example 47, 2-(2-(4-cyclohexylpiperazin-1-yl)ethoxy)pyrazolo[1,5-a]pyridine dimaleate] yielded an inhibition constant (Ki) of 14.1 nM. This Ki lies about 2-fold lower than the previous one.

Turning to `c1c(OCCNC23CC4CC(CC(C4)C2)C3)nn2c1CCCC2` [Example 75, N-adamantyl-2-(4,5,6,7-tetrahydropyrazolo[1,5-a]pyridin-2-yloxy)ethanamine maleate], the affinity, expressed as Ki, was 31.7 nM.

As for `CN(CCOc1nn2c(c1I)CCCC2)Cc1ccccc1` [Example 107, N-benzyl-2-(3-iodo-4,5,6,7-tetrahydropyrazolo[1,5-a]pyridin-2-yloxy)-N-methylethanamine oxalate], the Ki was 2.95 nM.

In the case of `c1ccn2nc(OCCCCN3CCCCCC3)cc2c1` [Example 49, 2-(4-(azepan-1-yl)butoxy)pyrazolo[1,5-a]pyridine maleate], the Ki amounted to 7 nM. This Ki lies about 2.4-fold higher than the previous one.

`c1ccc2c(c1)CCN(CCCCOc1cc3n(n1)CCCC3)C2` [Example 84, 2-(4-(4,5,6,7-tetrahydropyrazolo[1,5-a]pyridin-2-yloxy)butyl)-1,2,3,4-tetrahydroisoquinoline maleate] gave a Ki of 15.7 nM. This Ki is about 2.2-fold higher than that of the compound before.

The compound `CN(CCOc1cc2ccccn2n1)Cc1ccccc1` [Example 24, N-benzyl-N-methyl-2-(pyrazolo[1,5-a]pyridin-2-yloxy)ethanamine oxalate] showed a Ki of 4.5 nM.

For the compound `c1ccn2nc(OCCCCNC3CCCCC3)cc2c1` [Example 50, N-(4-(pyrazolo[1,5-a]pyridin-2-yloxy)butyl)cyclohexanamine maleate], the Ki is 9.7 nM.

`c1c(OCCN2CCCCCC2)nn2c1CCCC2` [Example 53, 2-(2-(azepan-1-yl)ethoxy)-4,5,6,7-tetrahydropyrazolo[1,5-a]pyridine maleate] came in with a Ki of 25.9 nM.

On to `c1c(OCCCCN2CC[C@H]3CCCC[C@@H]3C2)nn2c1CCCC2` [Example 81, (4aR,8aS)-2-(4-(4,5,6,7-tetrahydropyrazolo[1,5-a]pyridin-2-yloxy)butyl)decahydroisoquinoline maleate], for which the Ki was 12.8 nM.

Compound `c1ccc2cc(C3CCN(CCCCOc4cc5ccccn5n4)CC3)ccc2c1` [Example 26, 2-(4-(4-(naphthalen-2-yl)piperidin-1-yl)butoxy)pyrazolo[1,5-a]pyridine] showed a Ki of 11 nM.

For the compound `c1c(OCCCCN2CCSCC2)nn2c1CCCC2` [Example 86, 4-(4-(4,5,6,7-tetrahydropyrazolo[1,5-a]pyridin-2-yloxy)butyl)thiomorpholine maleate], the Ki stood at 8.4 nM.

Compound `c1ccn2nc(OCCCCN3CCCCC3)cc2c1` [Example 18, 2-(4-(piperidin-1-yl)butoxy)pyrazolo[1,5-a]pyridine oxalate] came in with a Ki of 14.7 nM.

In turn, `c1ccc(N2CCN(CCCCOc3cc4ccccn4n3)CC2)cc1` [Example 25, 2-(4-(4-phenylpiperazin-1-yl)butoxy)pyrazolo[1,5-a]pyridine oxalate] displayed a Ki of 19.6 nM.

On to `c1ccc2c(c1)COC21CCN(CCCCOc2cc3ccccn3n2)CC1` [Example 27, 1′-(4-(pyrazolo[1,5-a]pyridin-2-yloxy)butyl)-3H-spiro[isobenzofuran-1,4′-piperidine] oxalate], for which the Ki came out at 9.1 nM.

In turn, `c1ccn2nc(OCCCCN3CCN(C4CCCCC4)CC3)cc2c1` [Example 28, 2-(4-(4-cyclohexylpiperazin-1-yl)butoxy)pyrazolo[1,5-a]pyridine] had a Ki of 19.9 nM. This Ki is about 2.2-fold higher than that of the compound before.

The compound `c1c(OCCCCN2CCN(C3CCCCC3)CC2)nn2c1CCCC2` [Example 69, 2-(4-(4-cyclohexylpiperazin-1-yl)butoxy)-4,5,6,7-tetrahydropyrazolo[1,5-a]pyridine maleate] gave a Ki of 41.6 nM.

`CCN(CC)CCCCOc1cc2ccccn2n1` [Example 19, N,N-diethyl-4-(pyrazolo[1,5-a]pyridin-2-yloxy)butan-1-amine oxalate]: the affinity corresponds to a Ki of 74.9 nM. This Ki is about 1.8-fold higher than that of the compound before.

Take `c1c(OCCCN2CCCOCC2)nn2c1CCCC2` [Example 101, 4-(3-(4,5,6,7-tetrahydropyrazolo[1,5-a]pyridin-2-yloxy)propyl)-1,4-oxazepane]: the affinity corresponds to a Ki of 48.1 nM.

In the case of `c1ccc2c(c1)COC21CCN(CCCCOc2cc3n(n2)CCCC3)CC1` [Example 70, 1′-(4-(4,5,6,7-tetrahydropyrazolo[1,5-a]pyridin-2-yloxy)butyl)-3H-spiro[isobenzofuran-1,4′-piperidine]maleate], the affinity corresponds to a Ki of 21.6 nM. Against the preceding compound, the Ki is about 2.2-fold lower.

`c1ccn2nc(COCCCCN3CCN(C4CCCCC4)CC3)cc2c1` [Example 10, 2-((4-(4-cyclohexylpiperazin-1-yl)butoxy)methyl)pyrazolo[1,5-a]pyridine maleate] displayed a Ki of 75.4 nM. This Ki lies about 3.5-fold higher than the previous one.

Compound `c1c(OCCCCN2CCOCC2)nn2c1CCCC2` [Example 56, 4-(4-(4,5,6,7-tetrahydropyrazolo[1,5-a]pyridin-2-yloxy)butyl)morpholine oxalate] gave a Ki of 181 nM. This Ki is about 2.4-fold higher than that of the compound before.

For the compound `CCCN(CCCCOc1cc2n(n1)CCCC2)CC1CC1` [Example 80, N-(cyclopropylmethyl)-N-propyl-4-(4,5,6,7-tetrahydropyrazolo[1,5-a]pyridin-2-yloxy)butan-1-amine maleate], affinity was put at a Ki of 25 nM.

Regarding `CN(CCCCOc1cc2ccccn2n1)CCc1ccccc1` [Example 31, N-methyl-N-phenethyl-4-(pyrazolo[1,5-a]pyridin-2-yloxy)butan-1-amine hydrochloride], the affinity corresponds to a Ki of 21 nM.

`CN(CCCCOc1cc2ccccn2n1)C1CCN(Cc2ccccc2)CC1` [Example 12, 1-benzyl-N-methyl-N-(4-(pyrazolo[1,5-a]pyridin-2-yloxy)butyl)piperidin-4-amine difumarate] returned a Ki of 19.5 nM.

In turn, `Clc1c(OCCCCN2CCN(C3CCCCC3)CC2)nn2c1CCCC2` [Example 108, 3-chloro-2-(4-(4-cyclohexylpiperazin-1-yl)butoxy)-4,5,6,7-tetrahydropyrazolo[1,5-a]pyridine] displayed a Ki of 11.4 nM.

For `c1ccn2nc(OCCCCN3CCCC3)cc2c1` [Example 20, 2-(4-(pyrrolidin-1-yl)butoxy)pyrazolo[1,5-a]pyridine oxalate], the Ki came to 50.7 nM.

For `c1c(OCCCCNC2CCCCC2)nn2c1CCCC2` [Example 85, N-(4-(4,5,6,7-tetrahydropyrazolo[1,5-a]pyridin-2-yloxy)butyl)cyclohexanamine maleate], the Ki amounted to 42.5 nM.

`c1ccn2nc(OCCCCN3CCOCC3)cc2c1` [Example 17, 4-(4-(pyrazolo[1,5-a]pyridin-2-yloxy)butyl)morpholine oxalate]: the Ki turned out to be 118 nM. Compared with the last compound, the Ki is about 2.8-fold higher.
